Source: patent publication US20160045505A1, “COMPOUNDS AND COMPOSITIONS FOR THE TREATMENT OF PARASITIC DISEASES” (NOVARTIS AG, priority 2013, published 2016)
Read-outs that look alike come from different tables or passages of the source.

How the values were obtained:
[1] = system: Trypanosoma brucei Lister 427 strain, bloodstream form; experiment: Assay for proliferation of kinetoplastid parasite Trypanosoma brucei (Cell Titer Glo, 48 hours); type: cell-based; conditions: Trypanosoma brucei
How it was run: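 Bloodstream-form T. brucei Lister 427 in HMI-9 medium was exposed to compound (DMSO vehicle) for 48 hours at 37° C, 5% CO2. Parasite growth was read as ATP by CellTiter-Glo luminescence, with EC50 calculated from percent inhibition.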

[2] = system: Trypanosoma cruzi amastigotes (Tulahuen strain expressing Lac-Z) cultured in 3T3 fibroblast cells; experiment: microbe, parasite or virus in culture; type: cell-based; conditions: Trypanosoma cruzi, TULAHUEN, Fibroblast, T. cruzi amastigotes in 3T3 fibroblast cells, read-out: T cruzi EC50
[3] = system: Leishmania donovani axenic amastigote parasites; experiment: Leishmania donovani axenic amastigote proliferation assay (Cell TiterGlo luminescence, 2 day incubation); type: cell-based; conditions: Leishmania donovani, read-out: L. donovani amastigotes EC50
[4] = system: L. donovani HU3 strain in mouse peritoneal macrophages; experiment: Assay for proliferation of Leishmania parasites in infected mouse peritoneal macrophages (SybrGreen staining, high-content imaging, 5 days); type: cell-based, Leishmania donovani; conditions: Leishmania donovani, Peritoneal macrophage, L. donovani in mouse peritoneal macrophages, read-out: L. donovani Macrophage EC50
[5] = T. brucei Lister 427 bloodstream form, inhibition of proliferation, read-out: T. brucei EC50
[6] = axenic amastigotes, inhibition of proliferation
[7] = T. brucei Lister 427 bloodstream form, read-out: T. brucei EC50

SMILES | EC50 [1, 5] [µM] | EC50 ([2]; inhibition of proliferation) [nM] | EC50 [3, 6] [nM] | EC50 ([4]; inhibition of proliferation) [nM] | EC50 [1, 7] [µM] | EC50 [2] [nM] | EC50 ([3]; L. donovani axenic amastigotes) [nM] | EC50 [4] [nM] | EC50 ([1]; read-out: T. brucei EC50 (μM)) [µM]
Cc1nc(C)c(C(=O)Nc2ccc(F)c(-c3cn4cc(NC(=O)CN(C)C)cnc4n3)c2)o1 [Compound 186] | 0.59 | 10200 | 15800 | 6220 |  |  |  |  | 
CC(C)OC(=O)Nc1ccc(F)c(-c2cn3cc(C4=CCOCC4)cnc3n2)c1 [Compound 332] | 0.124 | 134 | 166 | 592 |  |  |  |  | 
CC(C)OC(=O)Nc1cnc2nc(-c3cc(NC(=O)N4CC[C@@H](F)C4)ccc3F)cn2c1 [Compound 229] | 0.776 | 11000 | 884 | 2820 |  |  |  |  | 
CC(=O)N(C)C1CCN(C(=O)Nc2ccc(Cl)c(-c3cn4cc(NC(=O)OC(C)C)cnc4n3)c2)C1 (stereo not drawn) [Compound 276] | 8.72 | > 20000 | > 25000 | > 50000 |  |  |  |  | 
Cc1nc(C)c(C(=O)Nc2ccc(F)c(-c3cn4cc(NC(=O)N5CCNC5=O)cnc4n3)c2)o1 [Compound 224] | 0.757 | > 20000 | 1410 | > 50000 |  |  |  |  | 
Cc1nc(C)c(C(=O)Nc2ccc(F)c(-c3cn4cc(-c5cccc(N6CCN(C(=O)OC(C)(C)C)CC6)n5)cnc4n3)c2)o1 [Compound 368] | 0.498 | 135 | 463 | 905 |  |  |  |  | 
O=C(Nc1ccc(F)c(-c2cn3cc(F)cnc3n2)c1)N1CC(F)C1 [Compound 231] | 0.313 | 420 | 307 | 1720 |  |  |  |  | 
O=C(Nc1cnc2nc(-c3cc(NC(=O)N4CCCC4)ccc3F)cn2c1)[C@@H]1CCCO1 [Compound 135] | 0.106 | 3790 | 255 | 3130 |  |  |  |  | 
Cc1nc(C)c(C(=O)Nc2ccc(F)c(-c3cn4cc([Si](C)(C)C)cnc4n3)c2)o1 [Compound 549, N-(4-fluoro-3-(6-(trimethylsilyl)imidazo[1,2-a]pyrimidin-2-yl)phenyl)-2,4-dimethyloxazole-5-carboxamide] |  |  |  |  | 0.117 | 63 | 133 | 448 | 
Cc1nc(C)c(C(=O)Nc2ccc(F)c(-c3cn4cc(-c5ccnn5C)cnc4n3)c2)o1 [Compound 393] |  |  |  |  | 0.11 | 149 | 147 | 183 | 
Cc1nc(C)c(C(=O)Nc2ccc(F)c(-c3cn4cc(NC(=O)OCCF)cnc4n3)c2)o1 [Compound 307] | 0.356 | 2540 | 249 | 428 |  |  |  |  | 
CNc1cnc2nc(-c3cc(NC(=O)c4oc(C)nc4C)ccc3F)cn2c1 [Compound 212] | 1.01 | 1300 | 1120 | 4150 |  |  |  |  | 
Cc1nc(C)c(C(=O)Nc2ccc(F)c(-c3cn4cc(NC(=O)[C@H]5CCCO5)cnc4n3)c2)o1 [Compound 164] | 0.196 | 1990 | 280 | 913 |  |  |  |  | 
CC(C)OC(=O)Nc1cnc2nc(-c3cc(NC(=O)N4CCNC4=O)ccc3Cl)cn2c1 [Compound 217] | > 50 | 7060 | > 25000 | > 50000 |  |  |  |  | 
CC(=O)Nc1cnc2nc(-c3cc(NC(=O)c4cnc(C)o4)ccc3F)cn2c1 [Compound 206] | > 50 | > 20000 | 3190 | > 50000 |  |  |  |  | 
Cc1nc(C)c(C(=O)Nc2ccc(F)c(-c3cn4cc(-c5ccc(CN(C)C)cc5)cnc4n3)c2)o1 [Compound 360] | 0.116 | 252 | 3370 | 450 |  |  |  |  | 
CC(C)OC(=O)Nc1cnc2nc(-c3cc(NC(=O)N(C)CC(F)(F)F)ccc3Cl)cn2c1 [Compound 255] | 0.122 | 329 | 364 | 502 |  |  |  |  | 
Cc1nc(C)c(C(=O)Nc2ccc(F)c(-c3cn4cc(-c5ccc(NC(C)C)cc5)cnc4n3)c2)o1 [Compound 380] |  |  |  |  | 30.7 | 14000 | 24500 | 33900 | 
COCCOCC(=O)Nc1cnc2nc(-c3cc(NC(=O)N4CCCC4)ccc3F)cn2c1 [Compound 137] | 0.406 | 8010 | 2150 | 24800 |  |  |  |  | 
Cc1nc(C)c(C(=O)Nc2ccc(F)c(-c3cn4cc(C#CCCN5CCN(C)CC5)cnc4n3)c2)o1 [Compound 546] |  |  |  |  | 3.18 | 3850 | 5660 | 30200 | 
CC1(C(=O)Nc2cnc3nc(-c4cc(NC(=O)N5CCCC5)ccc4F)cn3c2)CC1 [Compound 133] | 0.019 | 1840 | 97 | 607 |  |  |  |  | 

SMILES | EC50 [1, 5] [µM] | EC50 ([2]; inhibition of proliferation) [nM] | EC50 [3, 6] [nM] | EC50 ([4]; inhibition of proliferation) [nM] | EC50 [1, 7] [µM] | EC50 [2] [nM] | EC50 ([3]; L. donovani axenic amastigotes) [nM] | EC50 [4] [nM] | EC50 ([1]; read-out: T. brucei EC50 (μM)) [µM]
CC(C)OC(=O)Nc1cnc2nc(-c3cc(N4C(=O)c5ccccc5C4=O)ccc3Cl)cn2c1 [Compound 530, isopropyl (2-(2-chloro-5-(1,3-dioxoisoindolin-2-yl)phenyl)imidazo[1,2-a]pyrimidin-6-yl)carbamate] |  |  |  |  |  | > 20000 | > 13100 | > 50000 | > 50
CN(C)c1cnc2nc(-c3cc(NC(=O)N4CCC4)ccc3F)cn2c1 [Compound 469] |  |  |  |  | 0.055 | 146 | 143 | 230 | 
Cc1nc(C)c(C(=O)Nc2ccc(F)c(-c3cn4cc(-c5cncn5C)cnc4n3)c2)o1 [Compound 370] | 0.386 | 7370 | 5470 | 3610 |  |  |  |  | 
CC1=C(C(=O)Nc2cnc3nc(-c4cc(NC(=O)c5oc(C)nc5C)ccc4F)cn3c2)OCCO1 [Compound 116] | 0.153 | 3420 | 96 | 484 |  |  |  |  | 
Cc1nc(C)c(C(=O)Nc2ccc(F)c(-c3cn4cc(NC5CCC5)cnc4n3)c2)o1 [Compound 482] |  |  |  |  | 0.494 | 547 | 569 | 1010 | 
CC(C)OC(=O)Nc1cnc2nc(-c3cc(NC(=O)c4ccc(Cl)o4)ccc3Cl)cn2c1 [Compound 44] | 0.039 | 47 | 121 | 193 |  |  |  |  | 
Cc1ncc(C(=O)Nc2ccc(F)c(-c3cn4cc(C5CCC5)cnc4n3)c2)o1 [Compound 211] | 0.029 | 16 | 21 | 55 |  |  |  |  | 
CC(C)OC(=O)Nc1cnc2nc(-c3cc(NC(=O)N4C(C)CCC4C)ccc3Cl)cn2c1 (stereo not drawn) [Compound 270] | 4.11 | 701 | 2900 | 2200 |  |  |  |  | 
Cc1nc(C)c(C(=O)Nc2ccc(F)c(-c3cn4cc(-c5ccccc5F)cnc4n3)c2)o1 [Compound 391] |  |  |  |  | 0.053 | 16 | 56 | 129 | 
Cc1nc(C)c(C(=O)Nc2ccc(F)c(-c3cn4cc(NC(=O)OC5CCCC5)cnc4n3)c2)o1 [Compound 306] | 0.36 | 673 | 315 | 835 |  |  |  |  | 
Cc1nc(C)c(C(=O)Nc2ccc(F)c(-c3cn4cc(-c5c(C)noc5C)cnc4n3)c2)o1 [Compound 366] | 0.338 | 443 | 849 | 339 |  |  |  |  | 
Cc1cncc(-c2cnc3nc(-c4cc(NC(=O)c5oc(C)nc5C)ccc4F)cn3c2)c1 [Compound 440] |  |  |  |  | 0.315 | 238 | 119 | 200 | 
CC(C)OC(=O)Nc1cnc2nc(-c3cc(NC(=O)C4CC4)ccc3F)cn2c1 [Compound 240] | 0.439 | 602 | 1180 | > 50000 |  |  |  |  | 
Cc1csc(C(=O)Nc2cnc3nc(-c4cc(NC(=O)c5oc(C)nc5C)ccc4F)cn3c2)n1 [Compound 148] | 0.061 | 90 | 51 | 222 |  |  |  |  | 
CC(C)OC(=O)Nc1cnc2nc(-c3cc(NC(=O)c4cncs4)ccc3F)cn2c1 [Compound 90] | 0.61 | 1460 | 894 | 7580 |  |  |  |  | 
Cc1nc(C)c(C(=O)Nc2ccc(F)c(-c3cn4cc(Cl)cnc4n3)c2)o1 [Compound 205] | 0.352 | 413 | 300 | 1240 |  |  |  |  | 
Cc1nc(C)c(C(=O)Nc2ccc(F)c(-c3cn4cc(NC(=O)c5ccc(CN(C)C)cn5)cnc4n3)c2)o1 [Compound 195] | 0.463 | 2040 | 5640 | 5330 |  |  |  |  | 
CNc1ccc(-c2cnc3nc(-c4cc(NC(=O)c5oc(C)nc5C)ccc4F)cn3c2)cc1 [Compound 392] |  |  |  |  | 0.055 | 48 | 103 | 152 | 
O=C(Nc1ccc(F)c(-c2cn3cc(-c4cccnc4)cnc3n2)c1)N1CC[C@@H](F)C1 [Compound 408] |  |  |  |  | 0.018 | 237 | 78 | 246 | 
O=C(Nc1ccc(F)c(-c2cn3cc(NCCC(F)(F)F)cnc3n2)c1)N1CCCC1 [Compound 478] |  |  |  |  | 0.533 | 5520 | 4720 | > 16400 | 
Cc1nc(C)c(C(=O)Nc2ccc(F)c(-c3cn4cc(NC(=O)OC(C)C)cnc4n3)c2)s1 [Compound 68] | 14.2 | 3600 | 14200 | 39200 |  |  |  |  | 
